Measurements published in patent US20250375398A1.
Read-outs that look alike come from different tables or passages of the source.

What was measured:
[1] = system: SARS-CoV-2 virus [B.1.351]; assay type: in vivo, mice; settings: day 4
[2] = system: SARS-CoV-2; settings: for host cell viability, normalized to remdesivir alone (5 μM) / host cell viability (in words): infected Vero E6, 72 hours
[3] = system: SARS-CoV-2; assay type: cell-based; settings: remdesivir alone, dose-dependent; control around 10^6 TCID50/mL
[4] = system: SARS-CoV-2 virus [B.1.351]; assay type: in vivo, mice
[5] = system: SARS-CoV-2; test: microbe, parasite or virus in culture

Cc1cc(O)c2c(=O)c3c(O)cc(O)c4c5c(O)cc(O)c6c(=O)c7c(O)cc(C)c8c1c2c(c34)c(c78)c65 [Hypericin]
mice in which all infectious titers in lung were eliminated ([1]; Hypericin 20 mg/kg, pre-treatment from two days prior to infection): 5 out of 7
host cell viability, normalized to remdesivir alone (5 μM) ([2]; hypericin 1.563 μM, remdesivir 0 μM): 14.6%
host cell viability, normalized to remdesivir alone (5 μM) ([2]; hypericin 3.125 μM, remdesivir 0 μM): 12.9%
host cell viability, normalized to remdesivir alone (5 μM) ([2]; hypericin 6.25 μM, remdesivir 0 μM): 12.8%
host cell viability, normalized to remdesivir alone (5 μM) ([2]; hypericin 12.5 μM, remdesivir 0 μM): 20.4%
host cell viability, normalized to remdesivir alone (5 μM) ([2]; hypericin 25 μM, remdesivir 0 μM): 62.0%
host cell viability, normalized to remdesivir alone (5 μM) ([2]; hypericin 50 μM, remdesivir 0 μM): 62.6%
host cell viability, normalized to remdesivir alone (5 μM) ([2]; hypericin 100 μM, remdesivir 0 μM): 38.0%
host cell viability (in words) ([2]; hypericin (25-50 μM) alone): modest improvements in host cell viability
host cell viability ([2]; hypericin alone, 12.5-50 μM): 20-62%

CCC(CC)COC(=O)[C@H](C)N[P@](=O)(OC[C@H]1O[C@@](C#N)(c2ccc3c(N)ncnn23)[C@H](O)[C@@H]1O)Oc1ccccc1 [Remdesivir]
viral titer of SARS-CoV-2 [3]: zero
infectious titers in lung, in words ([4]; remdesivir 25 mg/kg daily intraperitoneally, day 4 post infection): strongest antiviral effect in reducing infectious titer
infectious titers in lung (plaque forming unit per mg of tissues), in words ([4]; remdesivir 5, 10 or 25 mg/kg daily intraperitoneally from day 1 post infection, day 4): dose-dependent effect on reducing infectious titers
infectious titers in lung compared to vehicle, in words ([1]; Remdesivir 10 mg/kg daily from day 1 post infection): did not impact infectious titers compared to vehicle
mice in which all infectious titers in lung were eliminated ([1]; Remdesivir 25 mg/kg daily from day 1 post infection): 4 out of 7
host cell viability, normalized to remdesivir alone (5 μM) ([2]; hypericin 0 μM, remdesivir 0.3125 μM): 19.8%
host cell viability, normalized to remdesivir alone (5 μM) ([2]; hypericin 0 μM, remdesivir 0.625 μM): 21.9%
host cell viability, normalized to remdesivir alone (5 μM) ([2]; hypericin 0 μM, remdesivir 1.25 μM): 25.2%
host cell viability, normalized to remdesivir alone (5 μM) ([2]; hypericin 0 μM, remdesivir 2.5 μM): 38.1%
host cell viability (in words) ([2]; remdesivir (5 μM) alone): dose-dependently improved host cell viability
viability at 5 µM ([5]; Severe acute respiratory syndrome coronavirus 2, Vero C1008, 72 h, read-out: host cell viability, normalized to remdesivir alone (5 μM)): 100%
viability at 1.25 µM ([5]; Severe acute respiratory syndrome coronavirus 2, Vero C1008, read-out: host cell viability): 26%
